Calls of active or inactive are those of the source. How the calls were made is not given here.

The first experiment relates to T. cruzi-infected H9C2 cardiomyocytes, high-content imaging. As to the kind of experiment: intracellular T. cruzi amastigote inhibition, imaging, H9C2 host cardiomyocytes, host toxicity (AID 1159565).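 Further: infected cells incubated 72 h after plating.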
Conditions: not given
For `COc1ccccc1CNc1cc(C2CC2)nc(-c2nccn2C)n1`, the IC50 was 0.79 µM. On the same count and under the same terms, the value for `CNS(=O)(=O)c1ccccc1Nc1nc(Nc2cc(C)nn2C)ncc1Cl` was 0.79 µM; that for `Cc1[nH]n2c(=O)c3c(nc2c1-c1ccc(Cl)cc1)CCCC3` was 1 µM.

For `Cc1nc(-c2ccc3c(c2)OCO3)sc1C(=O)NCc1ccc2c(c1)OCO2`, the IC50 is 0.79 µM. On the same count and under the same terms, the value for `O=C(CC1(O)C(=O)N(Cc2ccccc2)c2ccc(Br)cc21)c1cccnc1` (centres undefined) was 25 µM; that for `COc1cccc(-c2c(C)nn(-c3nc(N)nc(-c4ccccn4)n3)c2N)c1` was 2 µM. On the same count and under the same terms, the value for `Clc1ccc(CN2CCN(C3=NCCN3)CC2)cc1Cl` was 10 µM. On the same count and under the same terms, the same measure for `Cn1c(CN2CCN(c3ncc(C(F)(F)F)cc3Cl)CC2)nc2ccncc21`: 1 µM.

As to `O=C(COc1nn(-c2ccccc2)c2ncccc12)NCc1ccccc1`, the IC50 is > 50 µM (inactive). On the same count and under the same terms, the value for `O=C(CN1CCC2(O)CCCCC2C1c1ccc2c(c1)OCO2)Nc1ccc(Cl)cc1Cl` (centres undefined) was 5 µM; that for `O=C1CSC(c2cccnc2)N1c1ccc(Cl)cc1Cl` (centres undefined) was 0.25 µM. On the same count and under the same terms, the same measure for `CNc1cc(Cn2c(C(=O)c3cc(C)cc(Cl)c3)c(C(C)C)c(=O)[nH]c2=O)ccn1`: 0.02 µM; for `COc1cc(-c2noc(CC#N)n2)ccc1OC(F)F`: 40 µM.

With `CCn1c(-c2nonc2N)nc2c([C@@H](C)O)ncc(O[C@H](CN)c3ccccc3)c21`, the IC50 was 10 µM. Regarding `N#CN1CC[C@@H](NC(=O)Nc2ccccc2Oc2ccccc2)C1`, the IC50 is 4 µM. The same measure, in the same setting: the same measure for `Cc1nc(-c2nc(NCc3ccc(Cl)cc3)c3cccnc3c2O)n[nH]1`: 0.79 µM; for `CN(C)CCN(C)Cc1ccc(Cl)cc1NS(=O)(=O)c1ccc(Cl)c(Cl)c1`: 2 µM.

For `Cc1ccc(NC(=O)c2ccnc(N3CCCC3)c2)cc1-c1ccsc1C(N)=O`, the IC50 is 13 µM. In the case of `Cc1[nH]nc(C(F)(F)F)c1NC(=O)CCn1cc(Cl)c([N+](=O)[O-])n1`, the IC50 was 25 µM. Same read-out and setting: the same measure for `CNc1cncc(C2CCCN2C(=O)Cc2ccc3ccccc3c2)n1` (centres undefined): 0.16 µM; for `CCCc1cc(N)nc(-c2cc(CCC)cc(N)n2)c1`: 0.63 µM.

Regarding `O=C(NCCc1ccccc1Cl)c1cccn1-c1cccnc1`, the IC50 was 0.5 µM. The same measure, in the same setting: the value for `CCCNC(=O)Nc1cccc(-c2nc3ncccc3o2)c1` was 4 µM; that for `COc1cc(C2SCC(=O)Nc3c2c(C)nn3-c2nc3ccccc3s2)cc(OC)c1O` (centres undefined) was > 50 µM (inactive). For `C[C@@H](Oc1cc(-n2cnc3ccc(C(O)CO)cc32)sc1C(N)=O)c1ccccc1C(F)(F)F` (some centres undefined), the IC50 was 20 µM. On the same count and under the same terms, the value for `CC(C)c1cc(C(=O)N2CCCC(c3cc4ncccc4[nH]3)C2)on1` (centres undefined) was 3.2 µM; that for `N#Cc1cc([N+](=O)[O-])ccc1NC1CCCCCC1` was 2 µM.

As for `N#Cc1nc(C=Cc2ccccc2)oc1NCc1cccnc1`, the concentration for half-maximal inhibition (IC50) is 0.4 µM. In the case of `c1ccc2[nH]c(-c3ccc(N4CCCC4)nc3)nc2c1`, the half-maximal inhibitory concentration (IC50) was 1.6 µM. Same read-out and setting: the value for `Cc1ccccc1OCC(=O)N1CCCN(c2cccnn2)CC1` was 0.63 µM; that for `CC(CNS(=O)(=O)c1ccc(OC(F)F)cc1)c1ccc(NC(=O)c2ccncc2)cc1` (centres undefined) was 0.1 µM. The same measure, in the same setting: the value for `Cc1[nH]nc2c1C(c1ccc(OCc3ccccc3F)cc1)SCC(=O)N2` (centres undefined) was 3.2 µM. Same read-out and setting: the value for `CNC(=O)C1Cc2ccccc2N1C(=O)Cc1ccccc1` (centres undefined) was > 50 µM (inactive); that for `COc1ccc(-c2cnc(NC(=O)c3cc(-c4ccccn4)n[nH]3)n2C)cc1` was 5 µM. As for `Cc1ccc(S(=O)(=O)Cn2nnnc2C(c2cccnc2)N2CCN(c3ccccc3)CC2)cc1` (centres undefined), the IC50 was 0.32 µM.

`O=S1N=C(NCCCN(Cc2ccc(F)cc2)c2ccccn2)C(NCc2ccncc2)=N1` (centres undefined): the IC50 was 50 µM. The same measure, in the same setting: the same measure for `O=C(N[C@H](CO)c1ccccc1)c1ccc(-c2c[nH]c3nccc(C(F)(F)F)c23)s1`: 10 µM; for `Cc1cc2ncn(-c3ccc([N+](=O)[O-])cc3C#N)c2cc1C`: 2 µM. In the case of `CS(=O)(=O)c1ccc(CC(=O)Nc2nc(-c3ccc(Cl)s3)cs2)cc1`, the IC50 is 0.32 µM. Same read-out and setting: the value for `COc1cnc2ccc(=O)n(CCN3CCC(NC(=O)Cc4ccc(Cl)c(Cl)c4)CC3)c2c1` was 0.4 µM; that for `CNS(=O)(=O)c1ccccc1Nc1nc(Nc2ccnn2C)ncc1Cl` was 1 µM; that for `Cc1cc(Oc2cc(Cl)c(Cl)cc2Cl)n2ncnc2n1` was 25 µM. The same measure, in the same setting: the same measure for `COc1ccc([N+](=O)[O-])cc1NC(=O)c1cc(Cl)ccc1O`: 16 µM; for `Cc1cc(Br)cc(C(=O)c2c(C(C)C)c(=O)[nH]c(=O)n2Cc2ccnc(N)c2)c1`: 0.32 µM; for `CN(Cc1nc2c(C(=O)N3CCN(Cc4ccccc4)CC3)cccc2[nH]1)C1CCCc2cccnc21` (centres undefined): 0.5 µM. For the compound `Cc1ccc(CNC2CCN(C[C@@H]3Cn4c(=O)ccc5ccc(=O)n3c54)CC2)cc1F`, the IC50 is 1.3 µM.

For the compound `Oc1c(-c2n[nH]c(CCc3ccccc3)n2)ncc2cccnc12`, the IC50 was 0.2 µM. Still for that read-out and setting: the same measure for `O=C(NCCc1cccnc1)c1ccc(-c2ccccc2F)o1`: 0.2 µM. The same measure, in the same setting: the same measure for `COc1ccc(-c2nc3ncccc3o2)cc1NC(=O)c1cccs1`: 2.5 µM; for `Cc1ccccc1CNC(=O)CN(Cc1ccccn1)Cc1ccccn1`: 16 µM.

In the case of `COc1cc(C(C)C)c(S(C)(=O)=O)cc1C(=O)N1CCN(c2ccccc2Cl)CC1`, the IC50 is 2.5 µM. The same measure, in the same setting: the same measure for `N#Cc1cnc(Nc2cccc(CCN3CCOCC3)c2)nc1Nc1ccccc1C(N)=O`: 3.2 µM; for `O=C(NCCCn1cnc2ccccc21)c1ccc(NC(=O)c2ccco2)cc1`: 2 µM. The same measure, in the same setting: the same measure for `CCN(CC)c1ncc(C(=O)c2ccc([N+](=O)[O-])o2)s1`: 13 µM; for `CN(CCOc1ccc(Cl)cc1)Cc1nc(N)nc(N(C)C)n1`: 10 µM; for `COc1ccc2ncc(=O)n(CCN3CCOC(CNCc4ccc(C(F)(F)F)cc4F)C3)c2n1` (centres undefined): 1.6 µM.

Staying with this experiment, now noted: measured here: H9C2 host cell toxicity.
`COc1ccccc1CNc1cc(C2CC2)nc(-c2nccn2C)n1` registered an IC50 of 0.63 µM. Same read-out and setting: the value for `CNS(=O)(=O)c1ccccc1Nc1nc(Nc2cc(C)nn2C)ncc1Cl` was 0.25 µM; that for `Cc1[nH]n2c(=O)c3c(nc2c1-c1ccc(Cl)cc1)CCCC3` was above 50 µM; that for `Cc1nc(-c2ccc3c(c2)OCO3)sc1C(=O)NCc1ccc2c(c1)OCO2` was above 50 µM. As for `O=C(CC1(O)C(=O)N(Cc2ccccc2)c2ccc(Br)cc21)c1cccnc1` (centres undefined), the IC50 amounted to 3.2 µM. Still for that read-out and setting: the same measure for `COc1cccc(-c2c(C)nn(-c3nc(N)nc(-c4ccccn4)n3)c2N)c1`: above 50 µM; for `Clc1ccc(CN2CCN(C3=NCCN3)CC2)cc1Cl`: above 50 µM; for `Cn1c(CN2CCN(c3ncc(C(F)(F)F)cc3Cl)CC2)nc2ccncc21`: above 50 µM. Same read-out and setting: the value for `O=C(COc1nn(-c2ccccc2)c2ncccc12)NCc1ccccc1` was above 50 µM. On the same count and under the same terms, the same measure for `O=C(CN1CCC2(O)CCCCC2C1c1ccc2c(c1)OCO2)Nc1ccc(Cl)cc1Cl` (centres undefined): above 50 µM. As to `O=C1CSC(c2cccnc2)N1c1ccc(Cl)cc1Cl` (centres undefined), the IC50 is above 50 µM. The same measure, in the same setting: the same measure for `CNc1cc(Cn2c(C(=O)c3cc(C)cc(Cl)c3)c(C(C)C)c(=O)[nH]c2=O)ccn1`: above 50 µM. For `COc1cc(-c2noc(CC#N)n2)ccc1OC(F)F`, the half-inhibitory concentration (IC50) came to 32 µM. In the case of `CCn1c(-c2nonc2N)nc2c([C@@H](C)O)ncc(O[C@H](CN)c3ccccc3)c21`, the IC50 amounted to 0.63 µM. Still for that read-out and setting: the value for `N#CN1CC[C@@H](NC(=O)Nc2ccccc2Oc2ccccc2)C1` was 20 µM.

For `Cc1nc(-c2nc(NCc3ccc(Cl)cc3)c3cccnc3c2O)n[nH]1`, the IC50 came to 25 µM. On the same count and under the same terms, the value for `CN(C)CCN(C)Cc1ccc(Cl)cc1NS(=O)(=O)c1ccc(Cl)c(Cl)c1` was 5 µM. Same read-out and setting: the same measure for `Cc1ccc(NC(=O)c2ccnc(N3CCCC3)c2)cc1-c1ccsc1C(N)=O`: above 50 µM; for `Cc1[nH]nc(C(F)(F)F)c1NC(=O)CCn1cc(Cl)c([N+](=O)[O-])n1`: above 50 µM.

`CNc1cncc(C2CCCN2C(=O)Cc2ccc3ccccc3c2)n1` (centres undefined) came in with an IC50 above 50 µM. In turn, `CCCc1cc(N)nc(-c2cc(CCC)cc(N)n2)c1` returned an IC50 of 0.2 µM. Still for that read-out and setting: the value for `O=C(NCCc1ccccc1Cl)c1cccn1-c1cccnc1` was above 50 µM; that for `CCCNC(=O)Nc1cccc(-c2nc3ncccc3o2)c1` was 25 µM; that for `COc1cc(C2SCC(=O)Nc3c2c(C)nn3-c2nc3ccccc3s2)cc(OC)c1O` (centres undefined) was above 50 µM.

Compound `C[C@@H](Oc1cc(-n2cnc3ccc(C(O)CO)cc32)sc1C(N)=O)c1ccccc1C(F)(F)F` (some centres undefined) showed an IC50 of 0.63 µM.

Compound `CC(C)c1cc(C(=O)N2CCCC(c3cc4ncccc4[nH]3)C2)on1` (centres undefined) displayed an IC50 above 50 µM. On the same count and under the same terms, the same measure for `N#Cc1cc([N+](=O)[O-])ccc1NC1CCCCCC1`: above 50 µM; for `N#Cc1nc(C=Cc2ccccc2)oc1NCc1cccnc1`: 16 µM.

The record behind these values is PubChem BioAssay AID1159565 (GlaxoSmithKline (GSK), 2015).
